Series [1] concerns mouse RANKL mRNA. The experiment in a line: Antisense inhibition of mouse RANKL mRNA in C2C12 cells: dose response (Table 5). Particulars: relative to untreated control. Format: cell-based. As to the method: Cells were seeded into 24-well plates (Falcon-353047 at a density of ˜10,000 cells/cm^2 for use in antisense oligonucleotide transfection.
Cells are treated and data are obtained in triplicate. […] Cells were harvested 16-24 hours after oligonucleotide treatment.
Probes and primers to mouse RANKL were designed to hybridize to a mouse RANKL sequence, using published sequence information (GenBank accession number AF013170.1, incorporated herein as SEQ ID NO:ll). For mouse RANKL the PCR primers were: • forward primer: […] (SEQ ID NO:12) • reverse primer: […] (SEQ ID NO: 13) and • the PCR probe was: FAM-[…]-TAMRA (SEQ ID NO: 14) where FAM is the fluorescent reporter dye and TAMRA is the quencher dye. For mouse GAPDH the PCR primers were: • forward primer: […](SEQ ID NO:15) • reverse primer: […](SEQ ID NO:16) and the • PCR probe was: 5′ JOE-[…]-TAMRA 3′ (SEQ ID NO: 17) where JOE is the fluorescent reporter dye and TAMRA is the quencher dye.
In accordance with the present invention, a subset of the antisense oligonucleotides in Example 16 was further investigated in dose-response studies. The oligonucleotides used in this investigation were ISIS 180812 (SEQ ID NO: 178), ISIS 180814 (SEQ ID NO: 180), ISIS 180819 (SEQ ID NO: 185), ISIS 180828 (SEQ ID NO: 194) and the control oligonucleotide ISIS 101757 ([…], SEQ ID NO: 355). […] All cytidine residues are 5-methylcytidines.
C2C12 cells were treated with the oligonucleotides at 10, 50, 75, 100, and 150 nM as described in other examples herein. […] The results are expressed as percent inhibition relative to the untreated control. The data, shown in Table 5, are averages from two experiments and illustrate the oligonucleotides of the present invention are able to downregulate RANKL mRNA expression in a dose-dependent manner.

Series [2] concerns mouse RANKL mRNA. The experiment in a line: Antisense inhibition of mouse RANKL mRNA levels in C2C12 cells, quantitative real-time PCR (Table 2). Type of series: cell-based. Details: concentration or dose not given beside the values. As to conditions: averages from three experiments. In outline: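 C2C12 cells seeded at ~10,000 cells/cm^2, treated with antisense oligonucleotides (all C as 5-methylcytidine) in triplicate and harvested 16-24 h later. Mouse RANKL mRNA quantified by real-time RT-PCR with a FAM/TAMRA probe, with mouse GAPDH (JOE/TAMRA probe) as reference.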
Background: Real-time PCR tracks product formation cycle by cycle.

Series [3] in a line: Serum calcium concentration 24 hours after PTH infusion in mice treated with RANKL antisense oligonucleotides (Table 10). Type of series: in vivo, mouse. Particulars: mice. The method, then:
In accordance with the present invention, the effect of antisense oligonucleotide inhibition on PTH-induced serum calcium concentration increase was measured in mice. The serum calcium concentration in mice was measured as a function of antisense oligonucleotide dose. Calcitonin, a known bone antiresorptive agent, was used as a control for antiresorptive activity.
Female Swiss-Webster (5-8 wks old) mice fed a low-calcium diet were dosed subcutaneously for two weeks with either the oligonucleotides ISIS 180819 (SEQ ID NO: 185) or 180814 (SEQ ID NO: 180) at concentrations of 5 mg/kg, 15 mg/kg, 30 mg/kg, or 40 mg/kg. A control group of mice were treated with calcitonin (400 ng) plus PTH (1 ug/100 g/6 hr), PTH alone (1 ug/100 g/6 hr) or saline. Treatment with oligonucleotides was followed with infusion of PTH by subcutaneously implanted mini-pumps at a dose of 1 ug/100 g/6 hr. After 24 hours of PTH infusion (total PTH delivery of 4 ug/100 g), the mice were sacrificed and the serum calcium concentration was measured with the Sigma Diagnostics Calcium Kit (Sigma-Aldrich). The data, summarized in Table 10 are averages from eight mice. Percent mRNA inhibition is normalized to PTH alone treatment.

The subject of series [4] is rat RANKL mRNA. The experiment in a line: Antisense inhibition of rat RANKL mRNA levels in UMR-106 cells, quantitative real-time PCR (Table 3). Format: cell-based. Details: concentration or dose not given beside the values. Particulars: averages from three experiments. The method, boiled down: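 UMR-106 cells transfected with antisense oligonucleotides (5-methylcytidine throughout) in triplicate, harvested 16-24 h after treatment. RANKL mRNA quantified by real-time RT-PCR with a FAM/TAMRA probe, using rat GAPDH (JOE/TAMRA probe) as the reference.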

The nature of series [5]: Serum calcium after RANK antisense oligonucleotide treatment and PTH infusion: time course (Table 13). Format: in vivo, mouse. As to conditions: control mice, no oligonucleotide; PTH 1 ug/100 g/6 hr 24 h, calcitonin (400 ug). The method, then: In accordance with the present invention, ISIS 181071 was administered to mice for different time periods to evaluate its ability to inhibit RANK expression and PTH-induced serum calcium concentration increase as a function of oligonucleotide treatment time.
Female Swiss-Webster mice (5-8 wks old) were fed a low-calcium diet and received daily subcutaneous injections of 30 mg/kg of ISIS 181071 (SEQ ID NO: 356) for 2, 3, 5, 7, 10, 14, or 21 days. At the end of the oligonucleotide treatment period, mice were infused with PTH by subcutaneously implanted mini-pumps at a dose of 1 ug/100 g/6 hr. A group of control mice were dosed with either saline, PTH alone (1 ug/100 g/6 hr) or calcitonin (400 ug) plus PTH (1 ug/100 g/6 hr). Following 24 hours of PTH infusion (total PTH delivery of 4ug/100 g), the mice were sacrificed and measurements were made of serum calcium with the Sigma Diagnostics Calcium Kit (Sigma-Aldrich) and RANK mRNA expression in the proximal tibia (as described in other examples herein). Percent RANK mRNA inhibition is normalized to PTH alone treatment.

Strand notation (5' to 3'): a small letter for the sugar, then the base; units joined by * are phosphorothioate-linked, units joined directly phosphodiester-linked; [ ] holds rarer units or linkages, { } end groups; capitals alone tell only the bases. e = 2'-O-(2-methoxyethyl) (MOE); [5mC] = 5-methylcytosine; d = 2'-deoxy (DNA)

For “101757 (antisense eA*eG*eG*eT*eG*d[5mC]*dT*d[5mC]*dA*dG*dG*dA*d[5mC]*dT*d[5mC]*e[5mC]*eA*eT*eT*eT) [compound 101757]”, the “% Inhibition of RANKL mRNA” value in series [1] (50 nM oligonucleotide) was 17%; in series [1] (100 nM oligonucleotide), 13%.

Regarding “180812 (antisense eT*e[5mC]*e[5mC]*eG*eG*dA*dT*d[5mC]*d[5mC]*dA*dG*d[5mC]*dA*dG*dG*eG*eA*eA*eG*eG) [compound 180812]”, the “% Inhibition of RANKL mRNA” value is given as 0% in series [1] (10 nM oligonucleotide); 5% in series [1] (50 nM oligonucleotide); 13% in series [1] (75 nM oligonucleotide); 20% in series [1] (100 nM oligonucleotide); 45% in series [1] (150 nM oligonucleotide). Further, in series [2], the “% INHIB (inhibition of mouse RANKL mRNA levels)” value was determined as 47%.

Turning to “180814 (antisense eG*eT*e[5mC]*eT*eT*dA*d[5mC]*dA*d[5mC]*dA*dT*dG*dT*dA*dT*eA*eG*eA*e[5mC]*eA) [compound 180814]”, the “% Inhibition of RANKL mRNA” value in series [1] (10 nM oligonucleotide) stood at 12%; in series [1] (50 nM oligonucleotide), 14%; in series [1] (75 nM oligonucleotide) it was 61%; in series [1] (100 nM oligonucleotide), 70%; in series [1] (150 nM oligonucleotide) it was 81%. The “PTH-induced increase in serum calcium concentration” value in series [3] (s.c. two weeks 5, 15, 30 or 40 mg/kg, 24 hours PTH infusion) is recorded as “lessen the PTH-induced increase in serum calcium concentration”. Further, the “% INHIB (inhibition of mouse RANKL mRNA levels)” value in series [2] is 66%.

As for calcitonin [reference compound], the “inhibition of PTH-induced serum calcium concentration” value in series [3] (PTH infusion, n=8) is on record as 66 % inhibition.

Regarding “gctcgaaagtacaggaacag (antisense eG*e[5mC]*eT*e[5mC]*eG*dA*dA*dA*dG*dT*dA*d[5mC]*dA*dG*dG*eA*eA*e[5mC]*eA*eG) [ISIS 180802, 2′-MOE gapmer targeted to mouse and rat RANKL]”, the “% INHIB (inhibition of rat RANKL mRNA levels)” value in series [4] is given as “at least 40%”. The “% INHIB (inhibition of mouse RANKL mRNA levels)” value in series [2] is listed as “at least 40%”.

“180809 (antisense eG*eG*eA*eT*eT*dT*dT*dG*dA*dT*dG*d[5mC]*dT*dG*dG*eT*eT*eT*eT*eA) [compound 180809]”: in series [4], the “% INHIB (inhibition of rat RANKL mRNA levels)” value was found to be 57%. For the same molecule, the “% INHIB (inhibition of mouse RANKL mRNA levels)” value in series [2] amounted to 53%.

For the molecule “180807 (antisense eA*eG*e[5mC]*eA*eA*dA*dT*dG*dT*dT*dG*dG*d[5mC]*dG*dT*eA*e[5mC]*eA*eG*eG) [compound 180807]”, in series [4], the “% INHIB (inhibition of rat RANKL mRNA levels)” value turned out to be 48%. Besides, the “% INHIB (inhibition of mouse RANKL mRNA levels)” value in series [2] stood at 74%.

“180828 (antisense eT*eT*eT*eA*eT*dT*dT*dT*dG*d[5mC]*dT*dT*dG*d[5mC]*dA*eT*eA*eG*eT*eT) [compound 180828]”: the “% Inhibition of RANKL mRNA” value in series [1] (10 nM oligonucleotide) is 31%; in series [1] (50 nM oligonucleotide), 43%; in series [1] (75 nM oligonucleotide) it was 23%; in series [1] (100 nM oligonucleotide) it was 31%; in series [1] (150 nM oligonucleotide), 40%. Besides, in series [2], the “% INHIB (inhibition of mouse RANKL mRNA levels)” value is 44%.

B1: PTH alone (peptide, UniProt P01270 32-115, looked up)
Parathyroid hormone: SVSEIQLMHNLGKHLNSMERVEWLRKKLQDVHNFVALGAPLAPRDAGSQRPRKKEDNVLVESHEKSLGEADKADVNVLTKAKSQ
As for B1, in series [5], the Serum calcium concentration was determined as 21 mg/dL.

Values taken from patent US20050060764A1, “Mouse model for bone metabolism” (priority 2003, published 2005).
